In patent US20240384350A1, “METHODS OF TREATING CANCER WITH KINASE INHIBITORS” (BOARD OF REGENTS, THE UNIVERSITY OF TEXAS SYSTEM, priority 2021, published 2024):

What was measured:
Assay in all cases: Ba/F3 drug screening, Cell Titer Glo, IC50 Mut/WT
Format in all cases: cell-based
EGFR L858R T790M V843I = target: T1, EGFR L858R T790M V843I (Homo sapiens, UniProt P00533, L858R/T790M/V843I); conditions: T790M-like-3S, 72 hours
T1 construct: expressed in transfected cells; host or cells: Ba/F3

EGFR S768I/V769L = target: T2, EGFR S768I/V769L (Homo sapiens, UniProt P00533, S768I/V769L); conditions: Ba/F3 cells, EGFR S768I/V769L (PACC), Mut/WT
T2 construct: host or cells: Ba/F3
Description: (§1) Data represent the ratio of the IC50 value for a given TKI for cells with a PACC EGFR mutation to the IC50 value for cells with wildtype EGFR.
(§2) Ba/F3 cell generation, drug screening, and IC50 approximations. Ba/F3 cells were obtained as a gift from Dr. Gordon Mills (MD Anderson Cancer Center), and maintained in RPMI (Sigma) containing 10% FBS, 1% penicillin/streptomycin, and 10 ng/ml recombinant mIL-3 (R&D Biosystems). To establish stable Ba/F3 cell lines, Ba/F3 cells were transduced with retroviruses containing mutant EGFR plasmids for 12-24 hours.
(§3) After 48-72 hours of transduction, 2 μg/ml puromycin (Invitrogen) was added to Ba/F3 cell lines in complete RPMI. To select for EGFR positive cell lines, cells were stained with PE-EGFR (Biolegend) and sorted by FACS. After sorting, EGFR positive cells were maintained in RPMI containing 10% FBS, 1% penicillin/streptomycin, and 1 ng/ml EGF to support cell viability. Drug screening was performed as previously described^41,42. Shortly, cells were plated in 384-well plates (Greiner Bio-One) at 2000-3000 cells per well in technical triplicate. Seven different concentrations of TKIs or DMSO vehicle were added to reach a final volume of 40 μL per well. After 72 hours, 11 μL of Cell Titer Glo (Promega) was added to each well. Plates were incubated for a minimum of 10 minutes, and bioluminescence was determined using a FLUOstar OPTIMA plate reader (BMG LABTECH). Raw bioluminescence values were normalized to DMSO control treated cells, and values were plotted in GraphPad Prism. […] Drug screens were performed in technical triplicate on each plate and either duplicate or triplicate biological replicates.

EGFR Ex19del T790M = target: T3, EGFR Ex19del T790M (Homo sapiens, UniProt P00533, DEL746-750/T790M); conditions: T790M-like-3S, 72 hours
T3 construct: expressed in transfected cells; host or cells: Ba/F3

EGFR G719A L861Q = target: T4, EGFR G719A L861Q (Homo sapiens, UniProt P00533, G719A/L861Q); conditions: Ba/F3 cells, EGFR G719A L861Q (PACC), Mut/WT
T4 construct: expressed in transfected cells; host or cells: Ba/F3

EGFR S720P = target: T5, EGFR S720P (Homo sapiens, UniProt P00533, S720P); conditions: Classical-Like, 72 hours
T5 construct: expressed in transfected cells; host or cells: Ba/F3 cells, retroviral pBabe-Puro vector (vector made by GeneScript from EGFR WT)
Description: (§4) Data represent the ratio of the IC50 value for a given TKI for cells with a classical-like EGFR mutation to the IC50 value for cells with wildtype EGFR.
as §2
(§5) After 48-72 hours of transduction, 2 μg/ml puromycin (Invitrogen) was added to Ba/F3 cell lines in complete RPMI. To select for EGFR positive cell lines, cells were stained with PE-EGFR (Biolegend) and sorted by FACS. After sorting, EGFR positive cells were maintained in RPMI containing 10% FBS, 1% penicillin/streptomycin, and 1 ng/ml EGF to support cell viability. […] Shortly, cells were plated in 384-well plates (Greiner Bio-One) at 2000-3000 cells per well in technical triplicate. Seven different concentrations of TKIs or DMSO vehicle were added to reach a final volume of 40 μL per well. After 72 hours, 11 μL of Cell Titer Glo (Promega) was added to each well. Plates were incubated for a minimum of 10 minutes, and bioluminescence was determined using a FLUOstar OPTIMA plate reader (BMG LABTECH). Raw bioluminescence values were normalized to DMSO control treated cells, and values were plotted in GraphPad Prism. […] Drug screens were performed in technical triplicate on each plate and either duplicate or triplicate biological replicates.

EGFR R776H = target: T6, EGFR R776H (Homo sapiens, UniProt P00533, R776H); conditions: Ba/F3 cells, EGFR R776H (PACC), Mut/WT
T6 construct: host or cells: Ba/F3
Description: as §1, §2, §3

EGFR E709A G719S = target: T7, EGFR E709A G719S (Homo sapiens, UniProt P00533, E709A/G719S); conditions: Ba/F3 cells, EGFR E709A G719S (PACC), Mut/WT
T7 construct: expressed in transfected cells; host or cells: Ba/F3

[1] = target: T8, EGFR L747_K754del insATSPE (Homo sapiens, UniProt P00533, DEL747-749/K754E); conditions: T790M-like-3S, 72 hours
T8 construct: expressed in transfected cells; host or cells: Ba/F3 cells, retroviral pBabe-Puro vector
Description: Data represent the ratio of the IC50 value for a given TKI for cells with a T790M-like-3S EGFR mutation to the IC50 value for cells with wildtype EGFR.
as §2, §3

EGFR L858R/L718V = target: T9, EGFR L858R/L718V (Homo sapiens, UniProt P00533, L718V/L858R); conditions: Ba/F3 cells, EGFR L858R/L718V (PACC), Mut/WT
T9 construct: host or cells: Ba/F3

EGFR H773insNPH = target: T10, EGFR H773insNPH (Homo sapiens, UniProt P00533, INS773NPH); conditions: Ex20, 72 hours
T10 construct: expressed in transfected cells; host or cells: Ba/F3 cells, retroviral pBabe-Puro vector
Description: (§6) Data represent the ratio of the IC50 value for a given TKI for cells with an ex20ins EGFR mutation to the IC50 value for cells with wildtype EGFR.
as §2
(§7) After 48-72 hours of transduction, 2 μg/ml puromycin (Invitrogen) was added to Ba/F3 cell lines in complete RPMI. To select for EGFR positive cell lines, cells were stained with PE-EGFR (Biolegend) and sorted by FACS. After sorting, EGFR positive cells were maintained in RPMI containing 10% FBS, 1% penicillin/streptomycin, and 1 ng/ml EGF to support cell viability. Drug screening was performed as previously described^41,42. Shortly, cells were plated in 384-well plates (Greiner Bio-One) at 2000-3000 cells per well in technical triplicate. Seven different concentrations of TKIs or DMSO vehicle were added to reach a final volume of 40 μL per well. After 72 hours, 11 μL of Cell Titer Glo (Promega) was added to each well. Plates were incubated for a minimum of 10 minutes, and bioluminescence was determined using a FLUOstar OPTIMA plate reader (BMG LABTECH). Raw bioluminescence values were normalized to DMSO control treated cells, and values were plotted in GraphPad Prism. […] Drug screens were performed in technical triplicate on each plate and either duplicate or triplicate biological replicates. […] Statistical differences between groups were determined by ANOVA as described in the figure legends.

EGFR E709K = target: T11, EGFR E709K (Homo sapiens, UniProt P00533, E709K); conditions: Ba/F3 cells, EGFR E709K (PACC), Mut/WT
T11 construct: expressed in transfected cells; host or cells: Ba/F3

EGFR L718Q T790M = target: T12, EGFR L718Q T790M (Homo sapiens, UniProt P00533, L718Q/T790M); conditions: T790M-like-3R, 72 hours
T12 construct: expressed in transfected cells; host or cells: Ba/F3

EGFR L858R/T790M/L718Q = target: T13, EGFR L858R/T790M/L718Q (Homo sapiens, UniProt P00533, L718Q/L858R/T790M); conditions: T790M-like-3R, 72 hours
T13 construct: expressed in transfected cells; host or cells: Ba/F3

EGFR S768dupSVD = target: T14, EGFR S768dupSVD (Homo sapiens, UniProt P00533, DUP768-770); conditions: Ex20, 72 hours
T14 construct: expressed in transfected cells; host or cells: Ba/F3 cells, retroviral pBabe-Puro vector
Description: as §6, §2, §7

EGFR L858R/C797S = target: T15, EGFR L858R/C797S (Homo sapiens, UniProt P00533, C797S/L858R); conditions: Ba/F3 cells, EGFR L858R/C797S (PACC), Mut/WT
T15 construct: expressed in transfected cells; host or cells: Ba/F3

EGFR Ex19del = target: T16, EGFR Ex19del (Homo sapiens, UniProt P00533, DEL746-750); conditions: Classical-Like, 72 hours
T16 construct: expressed in transfected cells; host or cells: Ba/F3 cells, retroviral pBabe-Puro vector
Description: as §4, §2, §5

EGFR Ex19del/T790M/L792H = target: T17, EGFR Ex19del/T790M/L792H (Homo sapiens, UniProt P00533, DEL746-750/L792H/T790M); conditions: T790M-like-3R, 72 hours
T17 construct: expressed in transfected cells; host or cells: Ba/F3
Description: Data represent the ratio of the IC50 value for a given TKI for cells with a T790M-like-3R EGFR mutation to the IC50 value for cells with wildtype EGFR.
as §2
After 48-72 hours of transduction, 2 μg/ml puromycin (Invitrogen) was added to Ba/F3 cell lines in complete RPMI. To select for EGFR positive cell lines, cells were stained with PE-EGFR (Biolegend) and sorted by FACS. After sorting, EGFR positive cells were maintained in RPMI containing 10% FBS, 1% penicillin/streptomycin, and 1 ng/ml EGF to support cell viability. […] Shortly, cells were plated in 384-well plates (Greiner Bio-One) at 2000-3000 cells per well in technical triplicate. Seven different concentrations of TKIs or DMSO vehicle were added to reach a final volume of 40 μL per well. After 72 hours, 11 μL of Cell Titer Glo (Promega) was added to each well. Plates were incubated for a minimum of 10 minutes, and bioluminescence was determined using a FLUOstar OPTIMA plate reader (BMG LABTECH). Raw bioluminescence values were normalized to DMSO control treated cells, and values were plotted in GraphPad Prism. […] Drug screens were performed in technical triplicate on each plate and either duplicate or triplicate biological replicates. […] Statistical differences between groups were determined by ANOVA as described in the figure legends.

EGFR G719A/R776C = target: T18, EGFR G719A/R776C (Homo sapiens, UniProt P00533, G719A/R776C); conditions: Ba/F3 cells, EGFR G719A/R776C (PACC), Mut/WT
T18 construct: expressed in transfected cells; host or cells: Ba/F3
Description: as §1, §2, §3

EGFR Ex19del/L792H = target: T19, EGFR Ex19del/L792H (Homo sapiens, UniProt P00533, DEL746-750/L792H); conditions: Ba/F3 cells, EGFR Ex19del/L792H (PACC), Mut/WT
T19 construct: expressed in transfected cells; host or cells: Ba/F3
Description: as §1, §2, §3

EGFR T790M = target: T20, EGFR T790M (Homo sapiens, UniProt P00533, T790M); conditions: T790M-like-3S, 72 hours
T20 construct: expressed in transfected cells; host or cells: Ba/F3

EGFR T725M = target: T21, EGFR T725M (Homo sapiens, UniProt P00533, T725M); conditions: Classical-Like, 72 hours
T21 construct: expressed in transfected cells; host or cells: Ba/F3 cells, retroviral pBabe-Puro vector (vector made by GeneScript from EGFR WT)
Description: as §4, §2, §5

EGFR G719S T790M = target: T22, EGFR G719S T790M (Homo sapiens, UniProt P00533, G719S/T790M); conditions: T790M-like-3S, 72 hours
T22 construct: expressed in transfected cells; host or cells: Ba/F3

EGFR L833V = target: T23, EGFR L833V (Homo sapiens, UniProt P00533, L833V); conditions: Classical-Like, 72 hours
T23 construct: expressed in transfected cells; host or cells: Ba/F3 cells, retroviral pBabe-Puro vector

EGFR N771dupN G724S = target: T24, EGFR N771dupN G724S (Homo sapiens, UniProt P00533, DUP771-771/G724S); conditions: Ex20, 72 hours
T24 construct: expressed in transfected cells; host or cells: Ba/F3 cells, retroviral pBabe-Puro vector (vector made by GeneScript from EGFR G724S, c.2313_2314insAAC)
Description: as §6, §2, §7

EGFR S784F = target: T25, EGFR S784F (Homo sapiens, UniProt P00533, S784F); conditions: Classical-Like, 72 hours
T25 construct: expressed in transfected cells; host or cells: Ba/F3 cells, retroviral pBabe-Puro vector (vector made by GeneScript from EGFR WT)

EGFR E709A = target: T26, EGFR E709A (Homo sapiens, UniProt P00533, E709A); conditions: Ba/F3 cells, EGFR E709A (PACC), Mut/WT
T26 construct: expressed in transfected cells; host or cells: Ba/F3
Description: as §1, §2, §3

EGFR G719S = target: T27, EGFR G719S (Homo sapiens, UniProt P00533, G719S); conditions: Ba/F3 cells, EGFR G719S (PACC), Mut/WT
T27 construct: expressed in transfected cells; host or cells: Ba/F3
Description: as §1, §2, §3

C=CC(=O)N1CC[C@@H](Oc2nc(Nc3ccc(N4CCC(N5CCN(C)CC5)CC4)cc3)c(C(N)=O)nc2CC)C1 [Naquotinib]
ratio of IC50 for cells with mutant EGFR to IC50 for cells with wildtype EGFR (Mut/WT) (EGFR L858R T790M V843I): 0.01519 | ratio of the IC50 value for cells with a PACC EGFR mutation to the IC50 value for cells with wildtype EGFR (EGFR S768I/V769L): 1.734 | ratio of IC50 for cells with mutant EGFR to IC50 for cells with wildtype EGFR (Mut/WT) (EGFR Ex19del T790M): 0.009604 | ratio of the IC50 value for cells with a PACC EGFR mutation to the IC50 value for cells with wildtype EGFR (EGFR G719A L861Q): 0.03136 | ratio of IC50 for cells with mutant EGFR to IC50 for cells with wildtype EGFR (Mut/WT) (EGFR S720P): 0.03397 | ratio of the IC50 value for cells with a PACC EGFR mutation to the IC50 value for cells with wildtype EGFR (EGFR R776H): 0.5095 | ratio of the IC50 value for cells with a PACC EGFR mutation to the IC50 value for cells with wildtype EGFR (EGFR E709A G719S): 0.3574 | ratio of IC50 for cells with mutant EGFR to IC50 for cells with wildtype EGFR (Mut/WT) [1]: 0.00433 | ratio of the IC50 value for cells with a PACC EGFR mutation to the IC50 value for cells with wildtype EGFR (EGFR L858R/L718V): 3.358 | ratio of IC50 for cells with mutant EGFR to IC50 for cells with wildtype EGFR (Mut/WT) (EGFR H773insNPH): 1.077 | ratio of the IC50 value for cells with a PACC EGFR mutation to the IC50 value for cells with wildtype EGFR (EGFR E709K): 0.2663 | ratio of IC50 for cells with mutant EGFR to IC50 for cells with wildtype EGFR (Mut/WT) (EGFR L718Q T790M): 1.576 | ratio of IC50 for cells with mutant EGFR to IC50 for cells with wildtype EGFR (Mut/WT) (EGFR L858R/T790M/L718Q): 0.6815 | ratio of IC50 for cells with mutant EGFR to IC50 for cells with wildtype EGFR (Mut/WT) (EGFR S768dupSVD): 1.135 | ratio of the IC50 value for cells with a PACC EGFR mutation to the IC50 value for cells with wildtype EGFR (EGFR L858R/C797S): 5.266 | ratio of IC50 for cells with mutant EGFR to IC50 for cells with wildtype EGFR (Mut/WT) (EGFR Ex19del): 0.006035 | ratio of IC50 for cells with mutant EGFR to IC50 for cells with wildtype EGFR (Mut/WT) (EGFR Ex19del/T790M/L792H): 4.634 | ratio of the IC50 value for cells with a PACC EGFR mutation to the IC50 value for cells with wildtype EGFR (EGFR G719A/R776C): 0.2899 | ratio of the IC50 value for cells with a PACC EGFR mutation to the IC50 value for cells with wildtype EGFR (EGFR Ex19del/L792H): 0.02929 | ratio of IC50 for cells with mutant EGFR to IC50 for cells with wildtype EGFR (Mut/WT) (EGFR T790M): 0.4037 | ratio of IC50 for cells with mutant EGFR to IC50 for cells with wildtype EGFR (Mut/WT) (EGFR T725M): 0.5761 | ratio of IC50 for cells with mutant EGFR to IC50 for cells with wildtype EGFR (Mut/WT) (EGFR G719S T790M): 0.1409 | ratio of IC50 for cells with mutant EGFR to IC50 for cells with wildtype EGFR (Mut/WT) (EGFR L833V): 0.02478 | ratio of IC50 for cells with mutant EGFR to IC50 for cells with wildtype EGFR (Mut/WT) (EGFR N771dupN G724S): 2.781 | ratio of IC50 for cells with mutant EGFR to IC50 for cells with wildtype EGFR (Mut/WT) (EGFR S784F): 0.3727 | ratio of the IC50 value for cells with a PACC EGFR mutation to the IC50 value for cells with wildtype EGFR (EGFR E709A): 0.0743 | ratio of the IC50 value for cells with a PACC EGFR mutation to the IC50 value for cells with wildtype EGFR (EGFR G719S): 0.2727
